# Legend:
# [1] = test system: generalized trembling caused by an interperitoneal injection (200 mg/kg) of dl-5-hydroxytryptophane; experiment: Test A: potentiation in mice of generalized trembling caused by dl-5-hydroxytryptophane; format: in vivo; conditions: Mus musculus, po, dl-5-hydroxytryptophane 200 mg/kg intraperitoneal, read-out: Test A ED 50
# Method: Potentiation in mice of generalized trembling caused by an interperitoneal injection (200 mg/kg) of dl-5-hydroxytryptophane, following the protocol described by C. GOURET and G. RAYNAUD in J. Pharmacol. (Paris), (1974) 5, 231.
# [2] = test system: ptosis observed one hour after an intravenous injection (2 mg/kg) of reserpine; experiment: Test B: antagonism of the ptosis caused by reserpine in mice; format: in vivo; conditions: Mus musculus, po, 1 h, p.o., reserpine 2 mg/kg intravenous, read-out: Test B ED 50
# Method: Antagonism with respect to the ptosis observed one hour after an intravenous injection (2 mg/kg) of reserpine given to mice, following the protocol described by C.
# [3] = test system: pontogeniculo-occipital points (P.G.O.) caused by an intravenous injection (0.5 mg/kg) of reserpine; experiment: Test C: reduction in the density of pontogeniculo-occipital points (P.G.O.) caused by reserpine in cats; format: in vivo; conditions: Felis catus, ip, reserpine 0.5 mg/kg intravenous, read-out: Test C ED 50
# Method: Reduction in the density of pontogeniculo-occipital points (P.G.O.) caused by an intravenous injection (0.5 mg/kg) of reserpine given to cats, following the protocol described by A. COSTON and C. GOURET in J. Pharmacol. (Paris) (1976), 7, 409.
# Acute toxicity in mice = conditions: mouse, in vivo, po
SMILES,ED50 [1] [mg/kg],ED50 [2] [mg/kg],ED50 [3] [mg/kg],also measured
O=C1OC(CO)CN1c1ccc(OCCN2CCOCC2)cc1 (centres unmarked) [750 601],70,8,31,–
O=C1OC(CO)CN1c1ccc(OCc2cccc(Br)c2)cc1 (centres unmarked) [760 557],7.3,3.3,110,mortality (Acute toxicity in mice; 1000 mg/kg): 0%
"CC(=O)COc1ccc(N2CC(CO)OC2=O)cc1 (centres unmarked) [760 652, 3-(p-acetylmethyloxy) 5-hydroxymethyl 2-oxazolidinone]",–,–,–,"mortality (Acute toxicity in mice; mice, dose administered 1000 mg/kg/p.o.): 0%"
COCOc1ccc(N2CC(CO)OC2=O)cc1 (centres unmarked) [760 904],50,50,8.5,–
"CC(COc1ccc(N2CC(CO)OC2=O)cc1)=NO (centres unmarked) [770 126, oxime of 3-(p-acetylmethyloxyphenyl) 5-hydroxymethyl 2-oxazolidinone]",8,11,16.5,–
"N#CCCOc1ccc(N2CC(CO)OC2=O)cc1 (centres unmarked) [770 131, 3-(2-p-cyanoethoxyphenyl) 5-hydroxymethyl 2-oxazolidinone]",2.5,3,5.5,mortality (Acute toxicity in mice; 1000 mg/kg): 0%
"O=C1OC(CO)CN1c1ccc(C(F)(F)F)cc1 (centres unmarked) [770 152, 5-hydroxymethyl 3-p-trifluoromethylphenyl 2-oxazolidinone]",20,25,15,–
CC(C)C(=O)COc1ccc(N2CC(CO)OC2=O)cc1 (centres unmarked) [770 154],50,50,20,–
CN(C)c1cccc(N2CC(CO)OC2=O)c1 (centres unmarked) [770 155],50,22.5,35,–
CCCCCSc1ccc(N2CC(CO)OC2=O)cc1 (centres unmarked) [770 180],35,45,45,–
C=CCCCOc1ccc(N2CC(CO)OC2=O)cc1 (centres unmarked) [770 196],20,15,16,–
O=C1OC(CO)CN1c1ccc(OCc2cccnc2)cc1 (centres unmarked) [770 221],11.8,3.12,15,–
CC(=O)COc1cccc(N2CC(CO)OC2=O)c1 (centres unmarked) [770 230],–,6.25,16,–
"N#CCOc1cccc(N2CC(CO)OC2=O)c1 (centres unmarked) [770 231, 5-hydroxymethyl 3-m-cyanomethyloxyphenyl 2-oxazolidinone]",40,50,14,–
O=C1OC(CO)CN1c1ccc(OCc2ccc(Cl)c(Cl)c2)cc1 (centres unmarked) [770 268],7,8.5,–,–
O=C1OC(CO)CN1c1ccc(OCc2ccccn2)cc1 (centres unmarked) [770 298],55,12.5,–,–
O=C1OC(CO)CN1c1ccc(OCc2ccncc2)cc1 (centres unmarked) [770 299],20,12.5,–,–
N#Cc1ccccc1COc1ccc(N2CC(CO)OC2=O)cc1 (centres unmarked) [770 318],25,16,–,–
"CCCCCNc1ccc(N2CC(CO)OC2=O)cc1 (centres unmarked) [770 328, 3-p-n pentylaminophenyl 5-hydroxymethyl 2-oxazolidinone]",25,35,–,–
O=C1OC(CO)CN1c1ccc(OCc2ccc(Cl)cc2Cl)cc1 (centres unmarked) [770 354],25,30,30,–
CCC(=O)c1ccc(N2CC(CO)OC2=O)cc1 (centres unmarked) [770 365],29,25,–,–
O=C1OC(CO)CN1c1ccc(OCC2CC2)cc1 (centres unmarked) [770 388],9,12.5,4.5,–

SMILES,ED50 [1] [mg/kg],ED50 [2] [mg/kg],ED50 [3] [mg/kg],also measured
O=C1OC(CO)CN1c1ccc(OCc2cc(Cl)cc(Cl)c2)cc1 (centres unmarked) [770 416],6.2,10,3,–
CCCC(=O)c1ccc(N2CC(CO)OC2=O)cc1 (centres unmarked) [770 423],35,25,5,–
O=C1OC(CO)CN1c1ccc(OCC2=CCCC2)cc1 (centres unmarked) [770 466],9.6,6.2,9,–
O=C1OC(CO)CN1c1ccc(OCC2CCCC2)cc1 (centres unmarked) [770 467],2.8,1.2,3,–
"CC(=O)CSc1ccc(N2CC(CO)OC2=O)cc1 (centres unmarked) [770 501, 3-(p-acetylmethylthiophenyl) 5-hydroxymethyl 2-oxazolidinone]",22,25,–,–
CC(=O)Nc1ccc(COc2ccc(N3CC(CO)OC3=O)cc2)cc1 (centres unmarked) [770 569],5,2.5,6,–
O=C1OC(CO)CN1c1ccc(OCc2ccc(F)c(Cl)c2)cc1 (centres unmarked) [770 572],6.3,3.12,8.5,–
O=C1OC(CO)CN1c1ccc(OCc2ccc(Cl)c([N+](=O)[O-])c2)cc1 (centres unmarked) [770 672],25,19,–,–
O=C1OC(CO)CN1c1ccc(OCc2cccs2)cc1 (centres unmarked) [770 673],16,35,8,–
O=C1OC(CO)CN1c1ccc(COc2ccccc2)cc1 (centres unmarked) [770 696],15,20,–,–
O=C1OC(CO)CN1c1ccc(OCC2CCC2)cc1 (centres unmarked) [770 788],6.25,12.5,–,–
N#Cc1cc(COc2ccc(N3CC(CO)OC3=O)cc2)ccc1F (centres unmarked) [770 789],3,2,–,–
O=C1OC(CO)CN1c1ccc(OCc2ccc([N+](=O)[O-])c(Cl)c2)cc1 (centres unmarked) [770 790],50,25,–,–
O=C1OC(CO)CN1c1ccc(OCc2cnccn2)cc1 (centres unmarked) [770 845],6.25,12.5,–,–
O=C1OC(CO)CN1c1ccc(OCC2CCCCO2)cc1 (centres unmarked) [770 900],50,25,–,–
O=C1OC(CO)CN1c1ccc(OCCC2CCCCC2)cc1 (centres unmarked) [770 949],10,16,–,–
O=C1OC(CO)CN1c1ccc(OCc2ccc(F)c([N+](=O)[O-])c2)cc1 (centres unmarked) [770 955],13,7,–,mortality (Acute toxicity in mice; 2000 mg/kg): 17%
O=C1OC(CO)CN1c1ccc(OCC2OCCO2)cc1 (centres unmarked) [770 962],26,50,–,–
O=C1OC(CO)CN1c1ccc(OCc2ccoc2)cc1 (centres unmarked) [770 979],14,35,–,–
O=C1OC(CO)CN1c1ccc(OCC2=CCC=CC2)cc1 (centres unmarked) [770 984],10,25,–,–
O=C1OC(CO)CN1c1ccc(OCc2ccsc2)cc1 (centres unmarked) [771 067],7.5,12.5,–,–
CC(C)CCOc1ccc(N2CC(CO)OC2=O)cc1 (centres unmarked) [771 082],1.3,0.7,–,LD50 (Acute toxicity in mice): > 2000 mg/kg

SMILES,ED50 [1] [mg/kg],ED50 [2] [mg/kg],ED50 [3] [mg/kg],also measured
N#Cc1cc(COc2ccc(N3CC(CO)OC3=O)cc2)cc([N+](=O)[O-])c1 (centres unmarked) [771 125],3.12,1.56,–,–
O=C1OC(CO)CN1c1ccc(CCc2cccc(Cl)c2)cc1 (centres unmarked) [771 181],6.25,6.25,–,–
CCC(CC)COc1ccc(N2CC(CO)OC2=O)cc1 (centres unmarked) [771 197],25,16,–,–
O=C1OC(CO)CN1c1ccc(OCc2cc(Cl)cc([N+](=O)[O-])c2)cc1 (centres unmarked) [771 199],1.1,0.8,–,–
Nc1cccc(COc2ccc(N3CC(CO)OC3=O)cc2)c1 (centres unmarked) [771 240],35,50,–,–
O=C1OC(CO)CN1c1ccc(OCCC2CCCC2)cc1 (centres unmarked) [771 245],1.5,2,–,LD50 (Acute toxicity in mice): > 2000 mg/kg
CC(C)(C)CCOc1ccc(N2CC(CO)OC2=O)cc1 (centres unmarked) [771 246],17,23,–,–
CC(C)(C)COc1ccc(N2CC(CO)OC2=O)cc1 (centres unmarked) [771 249],22.5,50,–,–
"O=C1OC(CO)CN1c1ccc(COc2cccc([N+](=O)[O-])c2)cc1 (centres unmarked) [771 263, 3-para (metanitrophenoxymethyl) phenyl 5-hydroxymethyl 2-oxazolidinone]",4,3.1,–,–
O=C1OC(CO)CN1c1ccc(OCC2CCOCC2)cc1 (centres unmarked) [771 301],1.9,3,–,LD50 (Acute toxicity in mice): > 2000 mg/kg
O=C1OC(CO)CN1c1ccc(OCc2cccc(I)c2)cc1 (centres unmarked) [771 321],25,20,–,–
O=C1OC(CO)CN1c1ccc(OCC2CCCCCC2)cc1 (centres unmarked) [780 030],3,5.3,–,–
O=C1OC(CO)CN1c1ccc(OCC2CCCOC2)cc1 (centres unmarked) [780 034],4.4,6.2,–,–
CC1(COc2ccc(N3CC(CO)OC3=O)cc2)CCCC1 (centres unmarked) [780 076],2.3,7,–,–
O=C1OC(CO)CN1c1ccc(OCC2SCCCS2)cc1 (centres unmarked) [780 077],25,44,–,–
"O=C1OC(CO)CN1c1ccc(OCC2SCCS2)cc1 (centres unmarked) [780 080, 3-para[(1,3-dithiolan-2-yl)-methoxy]phenyl 5-hydroxymethyl 2-oxazolidinone]",50,50,–,–
O=C1OC(CO)CN1c1ccc(OCC2OCCS2)cc1 (centres unmarked) [780 112],5,5.2,–,–
COC(=O)Nc1ccc(COc2ccc(N3CC(CO)OC3=O)cc2)cc1 (centres unmarked) [780 182],40,25,–,–
CCC(=O)Nc1ccc(COc2ccc(N3CC(CO)OC3=O)cc2)cc1 (centres unmarked) [780 443],3.7,12.5,–,–
"Cc1cccc(N2CC(CO)OC2=O)c1 (centres unmarked) [TOLOXATONE, reference compound]",60,50,28,–
